Reference: patent US20180162844A1, “CYCLOPROPANE DERIVATIVE AND DRUG CONTAINING SAME” (EA PHARMA CO., LTD., priority 2015, published 2018)

target: T1, human TRPA1 (Homo sapiens, UniProt O75762); assay: Measurement of TRPA1 antagonist activity (intracellular calcium increase, allylisothiocyanate stimulation, 293T cells transfected with human TRPA1 expression plasmid); type: cell-based; conditions: Examples (Table 8-1); 293T cells expressing human TRPA1, allylisothiocyanate stimulation, FLIPR Calcium4, test substance added 10 min before AITC; read-out: hTRPA1 IC50
T1 construct: full-length human TRPA1 gene was amplified; expressed in transfected cells; host or cells: Human embryonic kidney-derived 293T cells, transient transfection with pcDNA3.1/zeo(+) human TRPA1 expression plasmid
T1 sequence (O75762 whole entry): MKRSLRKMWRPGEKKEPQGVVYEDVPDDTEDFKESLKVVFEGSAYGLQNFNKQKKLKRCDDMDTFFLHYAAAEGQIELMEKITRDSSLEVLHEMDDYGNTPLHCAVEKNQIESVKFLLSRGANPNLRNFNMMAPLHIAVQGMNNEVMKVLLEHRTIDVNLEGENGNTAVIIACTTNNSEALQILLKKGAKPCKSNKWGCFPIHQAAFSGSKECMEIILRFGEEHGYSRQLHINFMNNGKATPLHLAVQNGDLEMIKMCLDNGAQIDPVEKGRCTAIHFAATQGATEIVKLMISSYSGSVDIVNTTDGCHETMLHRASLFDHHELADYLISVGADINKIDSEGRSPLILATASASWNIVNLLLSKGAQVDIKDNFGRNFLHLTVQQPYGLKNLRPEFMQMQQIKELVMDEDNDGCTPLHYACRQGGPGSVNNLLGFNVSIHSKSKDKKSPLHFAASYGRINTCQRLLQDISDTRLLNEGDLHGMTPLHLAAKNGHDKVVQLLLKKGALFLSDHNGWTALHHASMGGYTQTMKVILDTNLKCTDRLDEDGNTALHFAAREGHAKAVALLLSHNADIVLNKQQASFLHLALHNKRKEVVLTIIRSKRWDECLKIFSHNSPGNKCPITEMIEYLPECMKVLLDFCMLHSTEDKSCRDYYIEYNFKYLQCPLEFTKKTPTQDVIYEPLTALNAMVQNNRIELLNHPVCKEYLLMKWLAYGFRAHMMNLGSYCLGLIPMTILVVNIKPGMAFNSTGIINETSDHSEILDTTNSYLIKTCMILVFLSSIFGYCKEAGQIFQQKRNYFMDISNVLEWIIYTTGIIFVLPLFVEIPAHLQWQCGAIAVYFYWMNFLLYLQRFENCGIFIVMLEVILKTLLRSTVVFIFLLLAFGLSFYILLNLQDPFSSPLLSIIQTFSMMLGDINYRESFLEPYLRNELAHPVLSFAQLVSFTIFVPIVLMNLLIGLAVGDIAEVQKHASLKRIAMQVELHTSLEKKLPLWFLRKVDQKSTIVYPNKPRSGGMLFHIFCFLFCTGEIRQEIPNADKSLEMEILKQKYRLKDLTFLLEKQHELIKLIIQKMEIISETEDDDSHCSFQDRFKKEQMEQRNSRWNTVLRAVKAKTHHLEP
Description: Experimental Example 1: Measurement of TRPA1 antagonist Activity
Human TRPA1 Expression Plasmid
Using cDNA encoding human TRPA1 (GenBank accession No. NM_007332) (manufactured by Kazusa DNA Research Institute, item No.: FHC07217) as a template, primer 1 (SEQ ID NO: 1) and primer 2 (SEQ ID NO: 2), PCR by PfuUltra High-Fidelity DNA Polymerase (Stratagene) was performed, and full-length human TRPA1 gene was amplified.
A recognition site (underlined) of restriction enzyme HindIII was added to the 5′ end of human TRPA1 gene, and XbaI site (underlined) was added to the 3′ end of human TRPA1 gene, and GTT of the template sequence was changed to termination codon TAG (bold). The obtained double stranded DNA was enzyme-digested with HindIII and XbaI, and introduced into a multicloning site of expression plasmid pcDNA3.1/zeo(+) (manufactured by Invitrogen) to give a human TRPA1 expression plasmid.
Human embryonic kidney-derived 293T cells were cultured in Dulbecco's Modified Eagle Medium containing 10% fetal bovine serum, 10 unit penicillin, and 10 μg streptomycin. One day before assay, 3×10^6 of 293T cells were plated on a petri dish having a diameter of 10 cm, and cultured in a CO2 incubator for 24 hr. OPTI-MEM I Reduced Serum Media (Invitrogen). (600 μL), Mirus TransIT-293 (Mirus Bio) (18 μL), and human TRPA1 expression plasmid (6 μg) were mixed, the total amount of the mixture was added to the cells on the petri dish to allow for gene transfer. The cells were recovered about for 8 hr later, plated on a poly-D-lysine coated 384 well black/clear bottom plate at 12,000 cells/well, and cultured overnight.
Measurement of Intracellular Calcium Increase
The medium was removed from the 384 well plate, calcium indicator (Molecular Device, trade name: FLIPR Calcium4 Assay Kit) dissolved in HBSS (Thermo Fisher Scientific) (pH 7.2) containing 20 mM HEPES was added (38 μL/well), and the cells were stained in a CO2 incubator for 1 hr. The 384 well plate was stood at room temperature for not less than 15 min, set on FDSS7000 (Hamamatsu Photonics K.K.), and a test substance solution was added at 10 μL/well. After 10 min, allylisothiocyanate solution (12 μL/well) was added, the relative fluorescence intensity was measured for 5 min after addition of the allylisothiocyanate solution.
Preparation of Test Substance Solution and Allylisothiocyanate Solution
A test substance solution was prepared to have a composition of HBSS (Thermo Fisher Scientific) (pH 7.2) containing 0.48% dimethyl sulfoxide, a test substance at 4.8-fold concentration of the evaluation concentration, 0.1% bovine serum albumin and 20 mM HEPES. An allylisothiocyanate solution was prepared to have a composition of HBSS (Thermo Fisher Scientific) (pH 7.2) containing 0.1% dimethyl sulfoxide, 100 μM allylisothiocyanate, 0.1% bovine serum albumin and 20 mM HEPES.
Calculation of Antagonist Activity
The activity rate of a test substance at each concentration was calculated, wherein the relative fluorescence intensity change of a well free of a test substance and containing allylisothiocyanate is 100% activity rate, and the relative fluorescence intensity change of a well free of a test substance and allylisothiocyanate is 0% activity rate. The inhibitory rate of a test substance at each concentration was calculated by subtracting the activity rate of the test substance from 100% activity rate, and the concentration of a test substance showing 50% inhibitory rate was calculated as IC50 from the sigmoid approximate curve by XLFit (idbs).

**Q.** How did the IC50 turn out when `O=C(NCc1cc(-c2ccc(C(F)(F)F)nn2)ccn1)C1(NS(=O)(=O)c2cc3cc(F)ccc3o2)CC1` [Example 8, 1-[(5-fluorobenzofuran-2-yl)sulfonylamino]-N-[[4-[6-(trifluoromethyl)pyridazin-3-yl]-2-pyridyl]methyl]cyclopropane-carboxamide] was run?
**A.** The IC50 was 74 nM.

**Q.** For `O=C(NCc1cncc(-c2ccc(C(F)(F)F)nc2)c1)C1(NS(=O)(=O)c2cc3cc(F)ccc3o2)CC1` [Example 9, 1-[(5-fluorobenzofuran-2-yl)sulfonylamino]-N-[[5-[6-(trifluoromethyl)-3-pyridyl]-3-pyridyl]methyl]cyclopropane-carboxamide], which IC50 is on record?
**A.** Its IC50 is 170 nM.

**Q.** Which IC50 does the source give for `O=C(NCc1cncc(-c2ccc(C(F)(F)F)cn2)c1)C1(NS(=O)(=O)c2cc3cc(F)ccc3o2)CC1` [Example 10, 1-[(5-fluorobenzofuran-2-yl)sulfonylamino]-N-[[5-[5-(trifluoromethyl)-2-pyridyl]-3-pyridyl]methyl]cyclopropane-carboxamide] here?
**A.** Its IC50 is 110 nM.

**Q.** For `O=C(NCc1cc(-c2ccc(OC(F)(F)F)cc2)ncn1)C1(NS(=O)(=O)c2cc3cc(F)ccc3o2)CC1` [Example 11, 1-[(5-fluorobenzofuran-2-yl)sulfonylamino]-N-[[6-[4-(trifluoromethoxy)phenyl]pyrimidin-4-yl]methyl]cyclopropanecarboxamide], which IC50 is on record?
**A.** Its IC50 is 40 nM.

**Q.** With `O=C(NCc1cc(-c2ccc(C(F)(F)F)nc2)ncn1)C1(NS(=O)(=O)c2cc3cc(F)ccc3o2)CC1` [Example 12, 1-[(5-fluorobenzofuran-2-yl)sulfonylamino]-N-[[6-[6-(trifluoromethyl)-3-pyridyl]pyrimidin-4-yl]methyl]cyclopropanecarboxamide] as the molecule, how does the IC50 read?
**A.** Its IC50 is 30 nM.

**Q.** `O=C(NCc1cc(-c2ccc(C(F)(F)F)cn2)ncn1)C1(NS(=O)(=O)c2cc3cc(F)ccc3o2)CC1` [Example 13, 1-[(5-fluorobenzofuran-2-yl)sulfonylamino]-N-[[6-[5-(trifluoromethyl)-2-pyridyl]pyrimidin-4-yl]methyl]cyclopropanecarboxamide] was tested. Which IC50 did it give?
**A.** The IC50 was 110 nM.

**Q.** `O=C(NCc1cc(-c2cnc(C(F)(F)F)nc2)ncn1)C1(NS(=O)(=O)c2cc3cc(F)ccc3o2)CC1` [Example 14, 1-[(5-fluorobenzofuran-2-yl)sulfonylamino]-N-[[6-[2-(trifluoromethyl)pyrimidin-5-yl]pyrimidin-4-yl]methyl]cyclopropanecarboxamide] was tested. Which IC50 did it give?
**A.** The IC50 was 47 nM.

**Q.** How did the IC50 turn out when `O=C(NCc1cnnc(-c2ccc(C(F)(F)F)cc2)c1)C1(NS(=O)(=O)c2cc3cc(F)ccc3o2)CC1` [Example 15, 1-[(5-fluorobenzofuran-2-yl)sulfonylamino]-N-[[6-[4-(trifluoromethyl)phenyl]pyridazin-4-yl]methyl]cyclopropanecarboxamide] was run?
**A.** Its IC50 is 310 nM.

**Q.** How did the IC50 turn out when `O=C(NCc1cnnc(-c2ccc(C(F)(F)F)nc2)c1)C1(NS(=O)(=O)c2cc3cc(F)ccc3o2)CC1` [Example 16, 1-[(5-fluorobenzofuran-2-yl)sulfonylamino]-N-[[6-[6-(trifluoromethyl)-3-pyridyl]pyridazin-4-yl]methyl]cyclopropanecarboxamide] was run?
**A.** The IC50 was 990 nM.

**Q.** For `O=C(NCc1cc(-c2ccc(C(F)(F)F)cn2)cnn1)C1(NS(=O)(=O)c2cc3cc(F)ccc3o2)CC1` [Example 17, 1-[(5-fluorobenzofuran-2-yl)sulfonylamino]-N-[[5-[5-(trifluoromethyl)-2-pyridyl]pyridazin-3-yl]methyl]cyclopropanecarboxamide], which IC50 is on record?
**A.** The IC50 was 240 nM.

**Q.** `O=C(NCc1ccc(O)c(-c2ccc(C(F)(F)F)cn2)c1)C1(NS(=O)(=O)c2cc3cc(F)ccc3o2)CC1` [Example 18, 1-[(5-fluorobenzofuran-2-yl)sulfonylamino]-N-[[4-hydroxy-3-[5-(trifluoromethyl)-2-pyridyl]phenyl]methyl]-cyclopropanecarboxamide] was tested. Which IC50 did it give?
**A.** Its IC50 is 25 nM.

**Q.** `CN(C)c1nc(CNC(=O)C2(NS(=O)(=O)c3cc4cc(F)ccc4o3)CC2)cc(-c2ccc(C(F)(F)F)cc2)n1` [Example 19] was tested. Which IC50 did it give?
**A.** Its IC50 is 38 nM.

**Q.** `O=C(NCc1cc(-c2ccc(C(F)(F)F)cc2O)ncn1)C1(NS(=O)(=O)c2cc3cc(F)ccc3o2)CC1` [Example 20, 1-[(5-fluorobenzofuran-2-yl)sulfonylamino]-N-[[6-[2-hydroxy-4-(trifluoromethyl)-phenyl]pyrimidin-4-yl]methyl]cyclopropanecarboxamide] was tested. Which IC50 did it give?
**A.** Its IC50 is 23 nM.

**Q.** How did the IC50 turn out when `O=C(NCc1cc(-c2ccc(C(F)(F)F)cc2)ncn1)C1(NS(=O)(=O)c2cc3ccccc3o2)CC1` [Example 21, 1-(benzofuran-2-ylsulfonylamino)-N-[[6-[4-(trifluoromethyl)phenyl]pyrimidin-4-yl]methyl]cyclopropanecarboxamide] was run?
**A.** Its IC50 is 77 nM.

**Q.** Which IC50 does the source give for `O=C(NCc1cc(-c2ccc(C(F)(F)F)cn2)ccn1)C1(NS(=O)(=O)c2cc3ccccc3o2)CC1` [Example 22, 1-(benzofuran-2-ylsulfonylamino)-N-[[4-[5-(trifluoromethyl)-2-pyridyl]-2-pyridyl]methyl]-cyclopropanecarboxamide] here?
**A.** Its IC50 is 130 nM.

**Q.** `CN(C)c1nc(CNC(=O)C2(NS(=O)(=O)c3cc4ccccc4o3)CC2)cc(-c2ccc(C(F)(F)F)cc2)n1` [Example 23, 1-(benzofuran-2-ylsulfonylamino)-N-[[2-(dimethylamino)-6-[4-(trifluoromethyl)phenyl]pyrimidin-4-yl]methyl]cyclopropanecarboxamide] was tested. Which IC50 did it give?
**A.** Its IC50 is 100 nM.

**Q.** Which IC50 does the source give for `CC(C)N(C1(C(=O)NCc2cc(-c3ccc(C(F)(F)F)nc3)ncn2)CC1)S(=O)(=O)c1cc2cc(F)ccc2o1` [Example 24, 1-[(5-fluorobenzofuran-2-yl)sulfonyl-isopropyl-amino]-N-[[6-[6-(trifluoromethyl)-3-pyridyl]pyrimidin-4-yl]methyl]cyclopropanecarboxamide] here?
**A.** The IC50 was 3.3 nM.

**Q.** Which IC50 does the source give for `CC(C)N(C1(C(=O)NCc2cc(-c3ccc(C(F)(F)F)nc3)ncn2)CC1)S(=O)(=O)c1cc2ccccc2o1` [Example 25, 1-[benzofuran-2-ylsulfonyl(isopropyl)amino]-N-[[6-[6-(trifluoromethyl)-3-pyridyl]pyrimidin-4-yl]methyl]cyclopropanecarboxamide] here?
**A.** The IC50 was 8.1 nM.

**Q.** How did the IC50 turn out when `O=C(NCc1cc(-c2ccc(C(F)(F)F)cc2)ncn1)C1(NS(=O)(=O)c2cc3cnccc3o2)CC1` [Example 26, 1-(furo[3,2-c]pyridin-2-ylsulfonylamino)-N-[[6-[4-(trifluoromethyl)phenyl]pyrimidin-4-yl]methyl]cyclopropanecarboxamide] was run?
**A.** Its IC50 is 45 nM.

**Q.** `O=C(NCc1cc(-c2ccc(C(F)(F)F)cc2)nc(N2CCCC2)c1)C1(NS(=O)(=O)c2cc3cc(F)ccc3o2)CC1` [Example 27, 1-[(5-fluorobenzofuran-2-yl)sulfonylamino]-N-[[2-pyrrolidin-1-yl-6-[4-(trifluoromethyl)phenyl]-4-pyridyl]methyl]-cyclopropanecarboxamide] was tested. Which IC50 did it give?
**A.** Its IC50 is 86 nM.

**Q.** For `O=C(NCc1cc(-c2ccc(C(F)(F)F)cc2)nc(N2CCCC2)c1)C1(NS(=O)(=O)c2cc3ccccc3o2)CC1` [Example 28, 1-(benzofuran-2-ylsulfonylamino)-N-[[2-pyrrolidin-1-yl-6-[4-(trifluoromethyl)phenyl]-4-pyridyl]methyl]-cyclopropanecarboxamide], which IC50 is on record?
**A.** The IC50 was 260 nM.

**Q.** Which IC50 does the source give for `CN(C1(C(=O)NCc2cc(-c3ccc(C(F)(F)F)cn3)ccn2)CC1)S(=O)(=O)c1cc2cc(F)ccc2o1` [Example 29, 1-[(5-fluorobenzofuran-2-yl)sulfonyl-methyl-amino]-N-[[4-[5-(trifluoromethyl)-2-pyridyl]-2-pyridyl]methyl]-cyclopropanecarboxamide] here?
**A.** Its IC50 is 1.2 nM.
